From ChEMBL document CHEMBL4219231, “Nε-Acryloyllysine Piperazides as Irreversible Inhibitors of Transglutaminase 2: Synthesis, Structure-Activity Relationships, and Pharmacokinetic Profiling” (J Med Chem, 2018)

Assays:
[1] = molecular target: T1, Protein-glutamine gamma-glutamyltransferase (Homo sapiens, UniProt P21980); test: Irreversible inhibition of human TGase 2 using Z-Glu(HMC)-Gly-OH as substrate measured at 20 secs interval over 900 secs by fluorimetric assay
T1 sequence (P21980 whole entry): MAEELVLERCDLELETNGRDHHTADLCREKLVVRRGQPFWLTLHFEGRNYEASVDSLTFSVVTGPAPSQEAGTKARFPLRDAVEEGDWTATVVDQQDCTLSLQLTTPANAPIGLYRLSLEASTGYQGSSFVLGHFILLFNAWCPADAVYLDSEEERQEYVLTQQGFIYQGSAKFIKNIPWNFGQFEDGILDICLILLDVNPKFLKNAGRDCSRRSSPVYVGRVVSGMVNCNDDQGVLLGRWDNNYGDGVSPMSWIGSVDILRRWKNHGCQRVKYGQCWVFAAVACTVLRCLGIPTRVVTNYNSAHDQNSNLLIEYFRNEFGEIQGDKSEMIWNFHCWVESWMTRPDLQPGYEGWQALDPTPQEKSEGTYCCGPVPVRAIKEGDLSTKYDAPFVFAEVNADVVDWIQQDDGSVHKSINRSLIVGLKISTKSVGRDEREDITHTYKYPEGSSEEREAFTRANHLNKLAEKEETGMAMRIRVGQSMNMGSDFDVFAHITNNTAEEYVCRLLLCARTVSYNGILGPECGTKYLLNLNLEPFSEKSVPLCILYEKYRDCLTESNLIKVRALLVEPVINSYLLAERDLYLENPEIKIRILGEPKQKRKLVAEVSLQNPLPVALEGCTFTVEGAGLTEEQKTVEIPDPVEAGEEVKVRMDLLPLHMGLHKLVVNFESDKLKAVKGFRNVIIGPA

[2] = molecular target: T1, Protein-glutamine gamma-glutamyltransferase; test: Reversible inhibition of human TGase 2 using Z-Glu(HMC)-Gly-OH as substrate measured at 20 secs interval over 900 secs by fluorimetric assay
[3] = Membrane retention, RM of the compound; assay type: physicochemical
[4] = Chromatographic hydrophobicity index in immobilized artificial membrane at pH 7.4 by HPLC method; assay type: ADME, cell membranes
in vitro = conditions: PAMPA
Description: Effective permeability of the compound by PAMPA assay

[5] = molecular target: T1, Protein-glutamine gamma-glutamyltransferase; test: Inhibition of human TGase 2 using R-I-Cad/DMC as substrate preincubated for 5 mins followed by substrate addition measured at 30 secs interval over 900 secs by fluorescence anisotropy assay
[6] = Inhibition of guinea pig TGase 2 using F-Cad/DMC as substrate preincubated for 30 mins followed by substrate addition measured at 30 secs interval over 900 secs by fluorescence anisotropy assay; design: species or system Cavia porcellus
[7] = n-octanol-phosphate buffer partition coefficient, log D of compound at pH 7.4 by 19F NMR analysis; assay type: physicochemical

With C=CC(=O)NCCCC[C@H](NC(=O)Cc1ccccc1)C(=O)N1CCN(c2cccc(C)c2)CC1 the Ki [1] was 7.55 µM.
Work on CCC(=O)NCCCC[C@H](NC(=O)Cc1ccccc1)C(=O)N1CCN(c2cccc(C)n2)CC1 yielded a Ki [2] of 64.3 µM.
For C=CC(=O)NCCCC[C@H](NC(=O)Cc1ccccc1)C(=O)N1CCN(S(=O)(=O)c2cccc3c(N(C)C)cccc23)CC1, the Rm [3] was 38%, the CHI [4] was 37.7 and the Papp (in vitro) was 7.68 ×10⁻⁶ cm/s.
C=CC(=O)NCCCC[C@H](NC(=O)Cc1ccccc1)C(=O)N1CCN(c2ccc([N+](=O)[O-])cc2)CC1 showed a Ki [1] of 2.52 µM.
C=CC(=O)NCCCC[C@H](NC(=O)Cc1ccccc1)C(=O)N1CCN(c2cccc(Cl)n2)CC1 showed an IC50 [5] of 0.18 µM, an IC50 [6] of 0.16 µM and a Ki [2] of 4.43 µM.
Work on C=CC(=O)NCCCC[C@H](NC(=O)Cc1ccccc1)C(=O)N1CCN(c2cccc(-c3ccccc3)n2)CC1 yielded an IC50 [5] of 0.2 µM, an IC50 [6] of 0.15 µM and a Rm [3] of 64%. It also gave a CHI [4] of 39, a Ki [2] of 7.76 µM and a Papp (in vitro) of 21.9 ×10⁻⁶ cm/s.
For C=CC(=O)NCCCC[C@H](NC(=O)Cc1cccs1)C(=O)N1CCN(c2cccc(C)n2)CC1, the Ki [1] was 5.56 µM.
Work on C=CC(=O)NCCCC[C@H](NC(=O)Cc1ccccc1)C(=O)N1CCN(c2cccc(OCCF)n2)CC1 yielded an IC50 [5] of 0.39 µM, an IC50 [6] of 0.27 µM and a Ki [2] of 7.32 µM.
C=CC(=O)NCCCC[C@H](NC(=O)Cc1ccccc1)C(=O)N1CCN(c2ccc(C(N)=O)nc2)CC1 showed a Ki [1] of 5.72 µM.
With C=CC(=O)NCCCC[C@H](NC(=O)Cc1ccc(I)cc1)C(=O)N1CCN(c2cccc(C)n2)CC1 the IC50 [6] was 0.16 µM.
C=CC(=O)NCCCC[C@H](NC(=O)Cc1ccccc1F)C(=O)N1CCN(c2cccc(C)n2)CC1 gave a Ki [1] of 4.49 µM, a Rm [3] of 21% and a CHI [4] of 30.1. It also gave a Papp (in vitro) of 11.4 ×10⁻⁶ cm/s.
Work on NCCCCCNC(=S)Nc1ccc2c(c1)C(=O)OC21c2ccc(O)cc2Oc2cc(O)ccc21 yielded a Ki [6] of 9.15 µM.
In the case of C=CC(=O)NCCCC[C@@H](NC(=O)Cc1ccccc1)C(=O)N1CCN(c2cccc(C)n2)CC1, the IC50 [6] is reported as 0.79 µM.
For CCN(CC)c1ccc2c(-c3ccccc3C(=O)N3CCC(C(=O)NCCCCCN)CC3)c3ccc(=[N+](CC)CC)cc-3oc2c1, the Ki [5] was 6.81 µM and the Ki [6] was 7.14 µM.
Work on C=CC(=O)NCCCC[C@H](NC(=O)Cc1ccccc1)C(=O)N1CCN(c2cccnc2)CC1 yielded a Ki [1] of 2.6 µM.
Work on C=CC(=O)NCCCC[C@H](NC(=O)Cc1ccccc1)C(=O)N1CCN(c2cccc(I)n2)CC1 yielded an IC50 [5] of 0.14 µM and a Ki [2] of 2.92 µM.
For C=CC(=O)NCCCC[C@H](NC(=O)Cc1ccccc1)C(=O)N1CCN(c2ccc(C(=O)OC)nc2)CC1, the Ki [1] was 7.12 µM.
NS(=O)(=O)c1cc2c(cc1Cl)NCNS2(=O)=O [HYDROCHLOROTHIAZIDE] gave a Papp (in vitro) of 0.06 ×10⁻⁶ cm/s.
COCCc1ccc(OCC(O)CNC(C)C)cc1 (centres undefined) [METOPROLOL] gave a Papp (in vitro) of 4.04 ×10⁻⁶ cm/s.
In the case of C=CC(=O)NCCCC[C@H](NC(=O)Cc1ccc(F)cc1)C(=O)N1CCN(c2cccc(C)n2)CC1, the logD [7] is reported as 0.36, the Rm [3] is reported as 10% and the CHI [4] is reported as 32.4. It also gave a Papp (in vitro) of 11.4 ×10⁻⁶ cm/s.
In the case of C=CC(=O)NCCCC[C@H](NC(=O)Nc1ccccc1)C(=O)N1CCN(c2ccc([N+](=O)[O-])nc2)CC1, the Ki [1] is reported as 7.96 µM.
In the case of C=CC(=O)NCCCC[C@H](NC(=O)Cc1cccc(F)c1)C(=O)N1CCN(c2cccc(C)n2)CC1, the Rm [3] is reported as 24%, the CHI [4] is reported as 30.9 and the Papp (in vitro) is reported as 12.5 ×10⁻⁶ cm/s.
With C=CC(=O)NCCCC[C@H](NC(=O)C(F)(F)F)C(=O)N1CCN(c2cccc(-c3ccccc3)n2)CC1 the Ki [1] was 14.3 µM.
Work on C=CC(=O)NCCCC[C@H](NC(=O)Cc1ccccc1)C(=O)N1CCN(c2cccc(Br)n2)CC1 yielded an IC50 [5] of 0.22 µM, an IC50 [6] of 0.2 µM and a Ki [2] of 5.65 µM.
With C=CC(=O)NCCCC[C@H](NC(=O)Cc1ccccc1)C(=O)N1CCN(C(=O)c2ccc([N+](=O)[O-])cc2)CC1 the Ki [1] was 7.71 µM.
Work on C=CC(=O)NCCCC[C@H](NC(=O)Cc1ccccc1)C(=O)N1CCN(c2cccc(C(C)(C)C)n2)CC1 yielded an IC50 [5] of 0.17 µM, a Rm [3] of 69% and a CHI [4] of 39.5. It also gave a Ki [2] of 3.5 µM and a Papp (in vitro) of 21.9 ×10⁻⁶ cm/s.
In the case of CCC(=O)NCCCC[C@H](NC(=O)Cc1ccccc1)C(=O)N1CCN(c2ccc([N+](=O)[O-])nc2)CC1, the Ki [2] is reported as 15 µM.
